Measurements reported in patent US20160158179A1, “NANOEMULSION THERAPEUTIC COMPOSITIONS AND METHODS OF USING THE SAME” (THE REGENTS OF THE UNIVERSITY OF MICHIGAN, priority 2008, published 2016).
Values after ≈ are worked out from the molar mass of the structure shown.

Assays:
[1] = test system: IL1-β, IL-6, TNF-α, CINC-1, CINC-3, IL-10 and TGF-β; assay: Dermal cytokine analysis (ELISA) of burn wound skin; type: in vivo, Sprague-Dawley rats
Procedure: After drying, an occlusive dressing of sterile […] […] Stock nanoemulsion […] […] The occlusive dressing and TELFA was removed. […] Homogenates were centrifuged at 3000 g for 5 minutes and the supernatants collected and stored frozen at -80° C. until use. Rat IL1-β, IL-6, […]-10 and TGF-β were measured by sandwich enzyme-linked immunosorbent assay (ELISA) using antibodies and reagents from R&D Systems, Inc. (Minneapolis, Minn.). The assay was carried out in 96-well microplates (Immunoplate Maxisorb, Nunc, Neptune, N.J.) according to the kit instructions and samples were read using a microplate reader (Biotek Instruments, Winooski, Vt.) at 450 nm with a wavelength correction of 540 nm. Cytokine concentrations were determined using the plate reader software and a 7-point standard curve. Results were adjusted for previous dilution and expressed as pg/mL.

[2] = test system: Myeloperoxidase; assay: Detection of neutrophil sequestration (myeloperoxidase assay); type: in vivo, Sprague-Dawley rats; conditions: infected burn wound, 32 hours post-injury
Procedure: The occlusive dressing and TELFA was removed.
100 mg of skin tissue was mechanically homogenized in 1 mL ice cold potassium phosphate buffer consisting of 115 mM monobasic potassium phosphate (Sigma Aldrich, Milwaukee, Wis.). Homogenates were centrifuged at 3000 g for 10 min at 4° C., the supernatants were removed and the pellets were re-suspended in 1 mL C-TAB buffer consisting of dibasic potassium phosphate, cetyltrimethylammonium bromide, and acetic acid (Sigma Aldrich, Milwaukee, Wis.). The suspensions were sonicated (Branson Sonifier 250, Danbury, Conn.) on ice for 40 seconds. Homogenates were centrifuged at 3000 g for 10 min at 4° C. and the supernatant collected. Supernatants were incubated in 60° C. water bath for 2 hours (Shaker Bath, 2568; Forma Scientific, Marietta, Ohio). Samples were stored at −80° C. until needed or assayed immediately.

[3] = test system: Burkholderia cepacia; assay: MIC determination, CLSI microdilution with alamar blue; type: cell-based; conditions: Burkholderia cepacia (n = 5); nanoemulsions in the presence of 5 mM EDTA
[4] = test system: Stenotrophomonas strains; assay: Checkerboard synergy study (FIC/FBC index); type: cell-based, Stenotrophomonas maltophilia; conditions: Stenotrophomonas; in combination with P4075EC+EDTA
[5] = test system: Acinetobacter strains; assay: Checkerboard synergy study (FIC/FBC index); type: cell-based, Acinetobacter baumannii; conditions: Acinetobacter; in combination with P4075EC+EDTA
[6] = test system: Burkholderia strains; assay: Checkerboard synergy study (FIC/FBC index); type: cell-based, Burkholderia cenocepacia; conditions: Burkholderia; in combination with P4075EC+EDTA
[7] = test system: Acinetobacter baumannii; assay: MIC and MBC determination (CLSI, alamar blue); conditions: Acinetobacter
[8] = test system: Pseudomonas aeruginosa; assay: MIC and MBC determination (CLSI, alamar blue), CF isolates; conditions: Pseudomonas
[9] = test system: Burkholderia cenocepacia; assay: as above
[10] = test system: Stenotrophomonas maltophilia; assay: as above
[11] = test system: Proteus mirabilis; assay: MIC determination, CLSI microdilution with alamar blue; type: cell-based; conditions: Proteus mirabilis (n = 5); nanoemulsions in the presence of 5 mM EDTA; in µg/mL

Q: Which “level of IL-10 or TGF-β in the infected burn wound” value ([1]; 32 hours) does the source give for `NCc1ccc(S(N)(=O)=O)cc1` [Sulfamylon, mafenide acetate] here?
A: Its value is “did not suppress”.

Q: What about the “dermal levels of proinflammatory cytokines IL-6, TNF-α, CINC-1 or CINC-3 compared to controls” value ([1]; infected burn wound) of the same molecule?
A: Its value is “did not result in any significant alteration”.

Q: What about the myeloperoxidase [2] of the same molecule?
A: The myeloperoxidase was 0.08 ± 0.02 µg/mL.

Q: For `NC[C@H]1O[C@H](O[C@H]2[C@H](O)[C@@H](O[C@H]3O[C@H](CO)[C@@H](O)[C@H](N)[C@H]3O)[C@H](N)C[C@@H]2N)[C@H](N)C[C@@H]1O` [Tobramycin], which MIC 50 [3] is on record?
A: Its MIC 50 is 16 µg/mL.

Q: And the Overall synergy result [4]?
A: The Overall synergy result was “No Interference”.

Q: And the Overall synergy result [5]?
A: The Overall synergy result was “No Interference”.

Q: And the Overall synergy result [6]?
A: The Overall synergy result was “No Interference”.

Q: What about the “MIC 50” value [7] of the same molecule?
A: Its value is 1 µg/mL (≈ 2.14 µM).

Q: And the “MIC 90” value [7]?
A: The value was 16 µg/mL (≈ 34.2 µM).

Q: And the “MIC 50” value [8]?
A: The value was 1 µg/mL (≈ 2.14 µM).

Q: What about the “MIC 90” value [8] of the same molecule?
A: The value was 16 µg/mL (≈ 34.2 µM).

Q: What about the “MIC 90” value ([9]; Burkholderia) of the same molecule?
A: Its value is over 32 µg/mL.

Q: And the MIC 50 ([9]; Burkholderia cenocepacia)?
A: Its MIC 50 is over 32 µg/mL.

Q: What about the MIC 90 ([9]; Burkholderia cenocepacia) of the same molecule?
A: The MIC 90 was over 32 µg/mL.

Q: What about the “MIC 50” value ([10]; Stenotrophomonas) of the same molecule?
A: The value was over 32 µg/mL.

Q: What about the “MIC 90” value ([10]; Stenotrophomonas) of the same molecule?
A: Its value is over 32 µg/mL.

Q: And the MIC 50 ([10]; Stenotrophomonas maltophilia)?
A: The MIC 50 was over 32 µg/mL.

Q: And the MIC 90 ([10]; Stenotrophomonas maltophilia)?
A: Its MIC 90 is over 32 µg/mL.

Q: Piperacillin/tazobactam was tested. Which “MIC Range” value [11] did it give?
A: The value was “<=0.5-1”.
